# US20120015344A1, “Methods, compositions, and apparatus for the detection of viral strains” (priority 2010, published 2012)
# “And” between values parts separate entries of the source, which are not always exact repeats. Equal entries are not always repeated. “Also recorded” adds a separate entry of the source. Where two headings read alike, the source gives them in different places. Marks after values point to notes of the source that are not given here.
# How the values were obtained:
# [1] = system: H5N1; conditions: cited from earlier work
# [2] = molecular target: T1, H1 hemagglutinin (HA) protein, A/South Carolina/1/18 (H1N1) (Influenza A virus, UniProt Q9WFX3); assay type: binding, Influenza A virus H1N1 (A/South Carolina/1/18)
# [3] = system: H5 Hemagglutinin (HA) Protein from Influenza Virus, A/Vietnam/1203/04 (H5N1); assay type: binding, Influenza A virus H5N1 (A/Vietnam/1203/04)
# [4] = molecular target: T1, H1 hemagglutinin (HA) protein, A/South Carolina/1/18 (H1N1); assay type: binding, Influenza A virus H1N1 (A/South Carolina/1/18); remark: listed apart in the source
# [5] = system: H5 Hemagglutinin (HA) Protein from Influenza Virus, A/Vietnam/1203/04 (H5N1); assay type: binding, Influenza A virus H5N1 (A/Vietnam/1203/04); remark: listed apart in the source
# T1 sequence (Q9WFX3 18-566 limits assumed): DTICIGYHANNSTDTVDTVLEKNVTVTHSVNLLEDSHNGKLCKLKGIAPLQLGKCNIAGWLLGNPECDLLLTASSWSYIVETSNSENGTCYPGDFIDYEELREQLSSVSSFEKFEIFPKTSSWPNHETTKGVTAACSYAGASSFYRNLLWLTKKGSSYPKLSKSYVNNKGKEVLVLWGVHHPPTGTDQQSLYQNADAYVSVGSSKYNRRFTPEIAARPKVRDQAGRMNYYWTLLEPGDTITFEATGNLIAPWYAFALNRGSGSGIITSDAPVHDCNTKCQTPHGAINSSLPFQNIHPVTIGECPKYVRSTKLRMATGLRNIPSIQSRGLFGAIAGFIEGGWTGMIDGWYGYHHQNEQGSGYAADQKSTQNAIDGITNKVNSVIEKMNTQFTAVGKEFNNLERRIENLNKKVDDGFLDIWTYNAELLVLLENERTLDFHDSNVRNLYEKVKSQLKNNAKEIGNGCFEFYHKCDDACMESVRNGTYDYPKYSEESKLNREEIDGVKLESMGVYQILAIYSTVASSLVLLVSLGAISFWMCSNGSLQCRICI
substance,measurement,setting,value
Neu5Acα2-3Galβ1-4[Fucα1-3]GlcNAcβ-SpNH-LC-LC-Biotin [3′SLe^x],Predicted to Bind H5N1,[1],Yes
same,Mean ΔQ ± S.D. (n = 3),[2],0.08906 ± 0.0045^b mC and 0.1186 ± 0.0180^b mC
same,"binding between H5 and glycan (avidity, from ΔQ)",[3],high avidity of binding
same,Mean ΔQ ± S.D. (n = 3),[4],0.2259 ± 0.0115^f mC and 0.2974 ± 0.0001^f mC
Neu5Acα2-8Neu5Acα2-8Neu5Acα2-3Galβ1-4Glcβ-SpNH-LC-LC-Biotin [GT3],Predicted to Bind H5N1,[1],No
same,Mean ΔQ ± S.D. (n = 3),[3],0.2881 ± 0.0172^f mC
same,"binding between H5 and glycan (avidity, from ΔQ)",[3],statistically lower binding
Neu5Acα2-6Galβ1-4GlcNAcβ-SpNH-LC-LC-Biotin [6′SLN],Mean ΔQ ± S.D. (n = 3),[5],0.1388 ± 0.0056^h mC
same,"binding between H5 and glycan (avidity, from ΔQ)",[5],statistically lower binding
same,Predicted to Bind H5N1,[1],No
Neu5Acα2-6[Galβ1-4GlcNAcβ1-3]2β-SpNH-LC-LC-Biotin [6′S-Di-LN],Predicted to Bind H5N1,[1],No
Neu5Acα2-3[Galβ1-4GlcNAcβ1-3]2β-SpNH-LC-LC-Biotin [3′S-Di-LN],Predicted to Bind H5N1,[1],Yes
Neu5Acα2-3[GalNAcβ1-4]Galβ1-4GlcNAcβ-SpNH-LC-LC-Biotin [CT/Sda],Predicted to Bind H5N1,[1],No
Neu5Acα2-3Galβ1-4GlcNAcβ-SpNH-LC-LC-Biotin [3′SLN],"binding between H5 and glycan (avidity, from ΔQ)",[5],statistically higher avidity; also recorded: high avidity of binding
same,Predicted to Bind H5N1,[1],Yes
